#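 Results reflect a 48-hour exposure of cells in 96-well plates to compound at five concentrations. GI50 is the concentration that inhibits growth by half.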 The source made the active and inactive calls. No stated cut-off is given here; in the data, active = GI50 up to about 1.1 µM and inactive = higher.
# Columns and labels:
# Experiment in all cases: inhibition of tumour cell growth, NCI panel, 48 h
# 786-0 = tested on: 786-0
# A498 = tested on: A498
# A549 = tested on: A549
# ACHN = tested on: ACHN
# CAKI-1 = tested on: CAKI-1
# CCRF-CEM = tested on: CCRF-CEM
# COLO 205 = tested on: COLO 205
# DLD-1 = tested on: DLD-1
# DMS-114 = tested on: DMS-114
# DMS-273 = tested on: DMS-273
# EKVX = tested on: EKVX
# HCC 2998 = tested on: HCC 2998
# HCT-116 = tested on: HCT-116
# HCT-15 = tested on: HCT-15
# HL-60 = tested on: HL-60
# HOP-18 = tested on: HOP-18
# HOP-62 = tested on: HOP-62
# HOP-92 = tested on: HOP-92
# HT-29 = tested on: HT-29
# IGROV-1 = tested on: IGROV-1
# K562 = tested on: K562
# KM-20L2 = tested on: KM-20L2
# KM12 = tested on: KM12
# LOX IMVI = tested on: LOX IMVI
# LXFL 529 = tested on: LXFL 529
# M14 = tested on: M14
# M19-MEL = tested on: M19-MEL
# MOLT-4 = tested on: MOLT-4
# Malme-3M = tested on: Malme-3M
# NCI-H226 = tested on: NCI-H226
# NCI-H23 = tested on: NCI-H23
# NCI-H460 = tested on: NCI-H460
# NCI-H522 = tested on: NCI-H522
# OVCAR-3 = tested on: OVCAR-3
# OVCAR-4 = tested on: OVCAR-4
# OVCAR-5 = tested on: OVCAR-5
# OVCAR-8 = tested on: OVCAR-8
# RPMI-8226 = tested on: RPMI-8226
# RXF 393 = tested on: RXF 393
# RXF 631 = tested on: RXF 631
# SF-268 = tested on: SF-268
# SF-295 = tested on: SF-295
# SF-539 = tested on: SF-539
# SK-MEL-28 = tested on: SK-MEL-28
# SK-MEL-2 = tested on: SK-MEL-2
# SK-MEL-5 = tested on: SK-MEL-5
# SK-OV-3 = tested on: SK-OV-3
# SN12C = tested on: SN12C
# SNB-19 = tested on: SNB-19
# SNB-75 = tested on: SNB-75
# SNB-78 = tested on: SNB-78
# SR = tested on: SR
# SW-620 = tested on: SW-620
# TK-10 = tested on: TK-10
# U-251 = tested on: U-251
# UACC-257 = tested on: UACC-257
# UACC-62 = tested on: UACC-62
# UO-31 = tested on: UO-31
# XF498 = tested on: XF498
smiles,measurement,setting,value
CCOC(=O)/C(ON)=C(/CC/C(C(=O)OC)=C(\ON)C(=O)OCC)C(=O)OC,GI50,786-0,> 100 µM (inactive)
same,GI50,A498,> 100 µM (inactive)
same,GI50,A549,> 100 µM (inactive)
same,GI50,ACHN,> 100 µM (inactive)
same,GI50,CAKI-1,> 100 µM (inactive)
same,GI50,CCRF-CEM,> 100 µM (inactive)
same,GI50,COLO 205,> 100 µM (inactive)
same,GI50,DLD-1,> 100 µM (inactive)
same,GI50,DMS-114,> 100 µM (inactive)
same,GI50,DMS-273,> 100 µM (inactive)
same,GI50,EKVX,> 100 µM (inactive)
same,GI50,HCC 2998,> 100 µM (inactive)
same,GI50,HCT-116,> 100 µM (inactive)
same,GI50,HCT-15,> 100 µM
same,GI50,HL-60,> 100 µM (inactive)
same,GI50,HOP-18,> 100 µM (inactive)
same,GI50,HOP-62,> 100 µM (inactive)
same,GI50,HOP-92,> 100 µM (inactive)
same,GI50,HT-29,> 100 µM (inactive)
same,GI50,IGROV-1,> 100 µM (inactive)
same,GI50,K562,> 100 µM (inactive)
same,GI50,KM-20L2,> 100 µM (inactive)
same,GI50,KM12,> 100 µM (inactive)
same,GI50,LOX IMVI,> 100 µM (inactive)
same,GI50,LXFL 529,> 100 µM (inactive)
same,GI50,M14,> 100 µM (inactive)
same,GI50,M19-MEL,> 100 µM (inactive)
same,GI50,MOLT-4,> 100 µM (inactive)
same,GI50,Malme-3M,> 100 µM (inactive)
same,GI50,NCI-H226,> 100 µM (inactive)
same,GI50,NCI-H23,> 100 µM (inactive)
same,GI50,NCI-H460,> 100 µM (inactive)
same,GI50,NCI-H522,> 100 µM (inactive)
same,GI50,OVCAR-3,> 100 µM (inactive)
same,GI50,OVCAR-4,> 100 µM (inactive)
same,GI50,OVCAR-5,> 100 µM (inactive)
same,GI50,OVCAR-8,> 100 µM (inactive)
same,GI50,RPMI-8226,> 100 µM (inactive)
same,GI50,RXF 393,> 100 µM (inactive)
same,GI50,RXF 631,> 100 µM (inactive)
same,GI50,SF-268,> 100 µM (inactive)
same,GI50,SF-295,> 100 µM (inactive)
same,GI50,SF-539,> 100 µM (inactive)
same,GI50,SK-MEL-28,> 100 µM (inactive)
same,GI50,SK-MEL-2,> 100 µM (inactive)
same,GI50,SK-MEL-5,> 100 µM (inactive)
same,GI50,SK-OV-3,> 100 µM (inactive)
same,GI50,SN12C,> 100 µM (inactive)
same,GI50,SNB-19,> 100 µM (inactive)
same,GI50,SNB-75,> 100 µM (inactive)
same,GI50,SNB-78,> 100 µM (inactive)
same,GI50,SR,> 100 µM (inactive)
same,GI50,SW-620,> 100 µM (inactive)
same,GI50,TK-10,> 100 µM (inactive)
same,GI50,U-251,> 100 µM (inactive)
same,GI50,UACC-257,> 100 µM (inactive)
same,GI50,UACC-62,> 100 µM (inactive)
same,GI50,UO-31,> 100 µM (inactive)
same,GI50,XF498,> 100 µM (inactive)
ClC/C=C/COC1CCCCO1 (stereo unspecified),GI50,786-0,> 100 µM (inactive)
same,GI50,A498,> 100 µM (inactive)
same,GI50,A549,> 100 µM (inactive)
same,GI50,ACHN,60.5 µM (inactive)
same,GI50,CAKI-1,89.9 µM (inactive)
same,GI50,CCRF-CEM,36.8 µM (inactive)
same,GI50,COLO 205,94.6 µM (inactive)
same,GI50,DLD-1,> 100 µM (inactive)
same,GI50,DMS-114,33.2 µM (inactive)
same,GI50,DMS-273,62.2 µM (inactive)
same,GI50,EKVX,> 100 µM (inactive)
same,GI50,HCC 2998,> 100 µM (inactive)
same,GI50,HCT-116,> 100 µM (inactive)
same,GI50,HCT-15,> 100 µM
same,GI50,HL-60,20.6 µM (inactive)
same,GI50,HOP-18,> 100 µM (inactive)
same,GI50,HOP-62,> 100 µM (inactive)
same,GI50,HOP-92,> 100 µM (inactive)
same,GI50,HT-29,> 100 µM (inactive)
same,GI50,IGROV-1,> 100 µM (inactive)
same,GI50,K562,> 100 µM (inactive)
same,GI50,KM-20L2,> 100 µM (inactive)
same,GI50,KM12,> 100 µM (inactive)
same,GI50,LXFL 529,> 100 µM (inactive)
same,GI50,M14,> 100 µM (inactive)
same,GI50,M19-MEL,> 100 µM (inactive)
same,GI50,MOLT-4,29 µM (inactive)
same,GI50,Malme-3M,> 100 µM (inactive)
same,GI50,NCI-H226,> 100 µM (inactive)
same,GI50,NCI-H23,> 100 µM (inactive)
same,GI50,NCI-H460,> 100 µM (inactive)
same,GI50,NCI-H522,2.12 µM (inactive)
same,GI50,OVCAR-3,> 100 µM (inactive)
same,GI50,OVCAR-4,> 100 µM (inactive)
same,GI50,OVCAR-5,> 100 µM (inactive)
same,GI50,OVCAR-8,57.5 µM (inactive)
same,GI50,RPMI-8226,54.2 µM (inactive)
same,GI50,RXF 393,> 100 µM (inactive)
same,GI50,RXF 631,34.8 µM (inactive)
same,GI50,SF-268,63.7 µM (inactive)
same,GI50,SF-295,> 100 µM (inactive)
same,GI50,SF-539,> 100 µM (inactive)
same,GI50,SK-MEL-2,> 100 µM (inactive)
same,GI50,SK-MEL-5,> 100 µM (inactive)
same,GI50,SK-OV-3,> 100 µM (inactive)
same,GI50,SN12C,> 100 µM (inactive)
same,GI50,SNB-19,> 100 µM (inactive)
same,GI50,SNB-75,> 100 µM (inactive)
same,GI50,SNB-78,> 100 µM (inactive)
same,GI50,SR,18.2 µM (inactive)
same,GI50,SW-620,> 100 µM (inactive)
same,GI50,TK-10,> 100 µM (inactive)
same,GI50,U-251,65.9 µM (inactive)
same,GI50,UACC-257,45.7 µM (inactive)
same,GI50,UACC-62,84.1 µM (inactive)
same,GI50,UO-31,> 100 µM (inactive)
same,GI50,XF498,25.2 µM (inactive)
